Results reported in US10350252B2, “Cocoa polyphenols and their use in the treatment or prevention of eosinophilic esophagitis” (NESTEC S.A., priority 2013, dated 2019).

Tested on: eosinophils in the esophagus
Test: Mouse model of eosinophilic esophagitis (epicutaneous Aspergillus fumigatus sensitization, intranasal challenge): eosinophil count in H&E stained esophagus
Type: in vivo, Balb/c mice
Settings: compared to the positive control (3X ASP sensitized, 1x ASP challenged, untreated); test substance in the food; harvest on day 32
Experimental: It is the object of the invention to provide new and alternative solutions to the problem of preventing or treating eosinophilic esophagitis. […] The evaluation of ingredients which are useful in the treatment or prevention of eosinophilic esophagitis is performed using an established mouse model for eosinophilic esophagitis (Akei et al., “Epicutaneous antigen exposure primes for experimental eosinophilic esophagitis in mice”, Gastroenterology, 2005 September; 129(3):985-94). This model uses various parameters including the number of eosinophils in the esophagus as indicators for the effect on eosinophilic esophagitis. Accordingly, is ideally suited for the testing of compounds that are candidates for the treatment or prevention of eosinophilic esophagitis. FIG. 2. Eosinophil number in the esophagus. The esophagea were harvested and tissue histology was performed. Eosinophils were identified and counted on Hematoxylin & Eosin (H&E) stained slides per high powered field (hpf). The maximal number of eosinophils found in one hpf field in the whole esophagus is shown. The maximal number of eosinophils present in the esophagal epithelium is represented. […] Esophagi were harvest and stained with hematoxylin eosin and eosinophils were counted (maximum/high power field, see FIG. 2).

`Oc1cc(O)c2c(c1)O[C@H](c1ccc(O)c(O)c1)[C@H](O)C2` [epicatechin] was tested, and the “reduction of eosinophils in the esophagus (maximum number per high power field)” value was “no effect”.
